In the supplement of paper PMC6580486:
Where a name gives a salt, the structure may show the parent alone.

Legend:
PCB-490-4 = test system: PCB-490-4 (human epithelioid sarcoma primary culture)
Method: (§1)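 60-agent targeted drug screens (Drug Screen V3 on epithelioid sarcoma cultures PCB490-3/4/5, PCB495, EPS cell lines ESX, VA-ES-BJ, FU-EPS-1 and SkMc myoblasts; PPTI screen v2.1 on human UPS PCB197 and canine UPS S1-12). 384-well plates, 72 h, CellTiter-Glo viability; IC50 by Hill curve fit. 10000 nM = no IC50 achieved (top reported value).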

FU-EPS-1 = test system: FU-EPS-1
Method: as §1

ESX = test system: ESX
Method: as §1

PCB-490-5 = test system: PCB-490-5 (human epithelioid sarcoma primary culture)
Method: as §1

SkMc = test system: SkMc
Method: as §1

PCB-495 = test system: PCB-495 (human epithelioid sarcoma primary culture)
Method: as §1

PCB-490-3 = test system: PCB-490-3 (human epithelioid sarcoma primary culture)
Method: as §1

VA-ES-BJ = test system: VA-ES-BJ
Method: as §1

pcb-00197 = test system: pcb-00197 (human undifferentiated pleomorphic sarcoma culture)
Method: as §1

s1-12 = test system: s1-12 (canine undifferentiated pleomorphic sarcoma culture)
Method: as §1

SMILES | IC50 cell viability (PCB-490-4) [µM] | IC50 cell viability (FU-EPS-1) [µM] | IC50 cell viability (ESX) [µM] | IC50 cell viability (PCB-490-5) [µM] | IC50 cell viability (SkMc) [µM] | IC50 cell viability (PCB-495) [µM] | IC50 cell viability (PCB-490-3) [µM] | IC50 cell viability (VA-ES-BJ) [µM] | IC50 cell viability (pcb-00197) [µM] | IC50 cell viability (s1-12) [µM] | IC50 cell viability (U23674) [µM]
CN[C@@H](C)C(=O)N[C@H](C(=O)N1CCC[C@H]1c1nc(C(=O)c2ccc(F)cc2)cs1)C1CCCCC1 [LCL161] | > 10 | > 10 | 1.8 | > 10 | > 10 | > 10 | > 10 | 3.15 |  |  | 
COc1ccc(C[C@@H](C)[C@@H](C)Cc2ccc(OC)c(OC)c2)cc1OC [EM1421] | > 10 | > 10 | > 10 | > 10 | > 10 | > 10 | > 10 | > 10 |  |  | 
CCCc1c(OCCCOc2cc(O)c(-c3ccc(F)cc3)cc2CC)cccc1Oc1ccccc1C(=O)O | > 10 | > 10 | > 10 | > 10 | > 10 | > 10 | > 10 | > 10 |  |  | 
Nc1nc2c(ncn2COC(CO)CO)c(=O)[nH]1 [Ganciclovir] | > 10 | 0.02 | > 10 | > 10 | > 10 | > 10 | > 10 | > 10 |  |  | 
CO[C@@H]1[C@H](N(C)C(=O)c2ccccc2)C[C@H]2O[C@]1(C)n1c3ccccc3c3c4c(c5c6ccccc6n2c5c31)C(=O)NC4 [PKC412] | 1.25 | > 10 | 6.4 | 1.73 | > 10 | 1.36 | > 10 | 1.8 |  |  | 
Cc1cc(Nc2cc(N3CCN(C)CC3)nc(Sc3ccc(NC(=O)C4CC4)cc3)n2)n[nH]1 [Tozasertib] | 3.33 | > 10 | > 10 | > 10 | 2.62 | > 10 | > 10 | > 10 |  |  | 
COc1cccc(OCCCN)c1-c1cc(Nc2cnc(C#N)cn2)n[nH]1 | > 10 | > 10 | 0.23 | > 10 | 1.29 | 3.17 | > 10 | 0.69 |  |  | 
CN(C)C(=N)NC(=N)N [Metformin HCL] | > 10 | > 10 | > 10 | > 10 | > 10 | > 10 | > 10 | > 10 |  |  | 
O=C(O)CC[C@H](O)C(=O)O [L-a-Hydroxyglutaric acid] | > 10 | > 10 | > 10 | > 10 | > 10 | > 10 | > 10 | > 10 |  |  | 
CO[C@H]1C[C@@H]2CC[C@@H](C)[C@@](O)(O2)C(=O)C(=O)N2CCCC[C@H]2C(=O)O[C@H]([C@H](C)C[C@@H]2CC[C@@H](O)[C@H](OC)C2)CC(=O)[C@H](C)/C=C(\C)[C@@H](O)[C@@H](OC)C(=O)[C@H](C)C[C@H](C)/C=C/C=C/C=C/1C [Sirolimus] | > 10 | > 10 | > 10 | > 10 | 0.29 | > 10 | > 10 | > 10 |  |  | 
C=C[C@@]1(C)CC(=O)[C@]2(O)[C@@]3(C)[C@@H](O)CCC(C)(C)[C@@H]3[C@H](O)[C@H](OC(C)=O)[C@@]2(C)O1 [Forskolin] | > 10 | > 10 | > 10 | > 10 | > 10 | > 10 | > 10 | > 10 |  |  | 
CC(C)(C)Cn1c(N)nc2ccc(-c3[nH]c(C(C)(C)C)nc3-c3ccc(F)cc3)nc21 | > 10 | > 10 | 5.07 | > 10 | > 10 | > 10 | > 10 | > 10 |  |  | 
Cc1ccc(S(=O)(=O)/C=C/C#N)cc1 [BAY-11-7082] | 1.93 | > 10 | > 10 | 0.77 | > 10 | > 10 | > 10 | 0.49 |  |  | 
O=C(O)c1ccc2c(c1)nc(Nc1cccc(Cl)c1)c1ccncc12 [CX-4945] | 6.52 | 0.14 | > 10 | 1.2 | 1.14 | > 10 | > 10 | > 10 |  |  | 
O=c1ncccn1[C@@H]1O[C@H](CO)[C@@H](O)[C@H]1O [Zebularine] | > 10 | > 10 | > 10 | > 10 | > 10 | > 10 | > 10 | > 10 |  |  | 
C[C@@H](Oc1cc(-c2cnn(C3CCNCC3)c2)cnc1N)c1c(Cl)ccc(F)c1Cl [Crizotinib] | 1.8 | 0.94 | 4.37 | 4.62 | 0.41 | 1.31 | 5.94 | 0.53 |  |  | 
Cc1ccc(-c2cc(C(F)(F)F)nn2-c2ccc(S(N)(=O)=O)cc2)cc1 [Celecoxib] | > 10 | > 10 | > 10 | > 10 | > 10 | > 10 | > 10 | > 10 |  |  | 
CC(C)N(CCCNC(=O)Nc1ccc(C(C)(C)C)cc1)C[C@H]1O[C@@H](n2cc(Br)c3c(N)ncnc32)[C@H](O)[C@@H]1O [SGC0946] | > 10 | 1.48 | 0.62 | > 10 | 0.1 | 0.6 | > 10 | 0.49 |  |  | 
CC1(C)CCC(c2ccc(Cl)cc2)=C(CN2CCN(c3ccc(C(=O)NS(=O)(=O)c4ccc(N[C@H](CCN5CCOCC5)CSc5ccccc5)c(S(=O)(=O)C(F)(F)F)c4)cc3)CC2)C1 [ABT-263] | > 10 | > 10 | > 10 | > 10 | > 10 | > 10 | > 10 | > 10 |  |  | 
CS(=O)(=O)c1cccc(CNc2nc(Nc3ccc4c(c3)CCC(=O)N4)ncc2C(F)(F)F)c1 | > 10 | > 10 | > 10 | > 10 | > 10 | > 10 | > 10 | > 10 |  |  | 
Cc1[nH]c2ccccc2c1CCNCc1ccc(/C=C/C(=O)NO)cc1 [Panobinostat] | 0.17 | 0.15 | 0.12 | 0.11 | 0.18 | 0.23 | 0.53 | 0.02 |  |  | 
Cc1nnc(C(C)C)n1C1C[C@H]2CC[C@@H](C1)N2CC[C@H](NC(=O)C1CCC(F)(F)CC1)c1ccccc1 (stereo in doubt) [Maraviroc] | > 10 | > 10 | > 10 | > 10 | > 10 | > 10 | > 10 | > 10 |  |  | 
Cn1cc(NC(=O)c2cc(NC(=O)CNC(=N)N)cn2C)cc1C(=O)NCCC(=N)N [Netropsin Dihydrochloride] | > 10 | > 10 | > 10 | > 10 | > 10 | 5.52 | > 10 | > 10 |  |  | 
CN1CCc2c(c3ccccc3n2Cc2ccc(C(=O)NO)cc2)C1 [Tubastatin A] | > 10 | > 10 | > 10 | > 10 | > 10 | > 10 | > 10 | > 10 |  |  | 

SMILES | IC50 cell viability (PCB-490-4) [µM] | IC50 cell viability (FU-EPS-1) [µM] | IC50 cell viability (ESX) [µM] | IC50 cell viability (PCB-490-5) [µM] | IC50 cell viability (SkMc) [µM] | IC50 cell viability (PCB-495) [µM] | IC50 cell viability (PCB-490-3) [µM] | IC50 cell viability (VA-ES-BJ) [µM] | IC50 cell viability (pcb-00197) [µM] | IC50 cell viability (s1-12) [µM] | IC50 cell viability (U23674) [µM]
C[C@@H](Oc1ccc2[nH]nc(/C=C/c3cnn(CCO)c3)c2c1)c1c(Cl)cncc1Cl | 0.5 | > 10 | 4.52 | 0.46 | > 10 | 0.19 | 1.73 | > 10 |  |  | 
N#CC[C@H](C1CCCC1)n1cc(-c2ncnc3[nH]ccc23)cn1 [Ruxolitinib] | > 10 | > 10 | > 10 | > 10 | > 10 | > 10 | > 10 | > 10 |  |  | 
CC(=O)c1c(C)c2cnc(Nc3ccc(N4CCNCC4)cn3)nc2n(C2CCCC2)c1=O | > 10 | > 10 | > 10 | > 10 | > 10 | > 10 | > 10 | > 10 |  |  | 
Cc1nc(Nc2ncc(C(=O)Nc3c(C)cccc3Cl)s2)cc(N2CCN(CCO)CC2)n1 [Dasatinib] | 0.17 | > 10 | > 10 | 0.39 | 0.05 | > 10 | 1.27 | > 10 |  |  | 
CC(C)n1nc(-c2ccc3oc(N)nc3c2)c2c(N)ncnc21 [INK 128] | 0.06 | > 10 | 0.01 | 0.1 | 0.02 | 0.14 | 0.26 | 0.03 |  |  | 
CC[C@H](C)n1cc(C)c2c(C(=O)NCc3c(C)cc(C)[nH]c3=O)cc(-c3ccc(N4CCNCC4)nc3)cc21 [GSK126] | > 10 | > 10 | > 10 | > 10 | 0.44 | > 10 | > 10 | > 10 |  |  | 
C=CCn1c(=O)c2cnc(Nc3ccc(N4CCN(C)CC4)cc3)nc2n1-c1cccc(C(C)(C)O)n1 [MK-1775] | > 10 | 1.01 | 0.17 | > 10 | 0.16 | > 10 | > 10 | 0.3 |  |  | 
CC[C@@H]1C(=O)N(C)c2cnc(Nc3ccc(C(=O)N[C@H]4CC[C@H](N5CCN(CC6CC6)CC5)CC4)cc3OC)nc2N1C(C)C [Volasertib] | > 10 | 0.35 | 6.23 | > 10 | > 10 | 6.54 | > 10 | 1.09 |  |  | 
Nc1nc(Nc2ccc(S(N)(=O)=O)cc2)nn1C(=S)Nc1c(F)cccc1F [Cdk1/2 inhibitor III] | 1.02 | > 10 | 0.2 | 1.1 | 0.29 | 0.42 | 1.41 | 0.13 |  |  | 
Clc1ccc(NN=C(c2ccccc2)c2ccccn2)nc1 [JIB-04] | 3.73 | 2.4 | 0.6 | 1.62 | 1.41 | 1.14 | > 10 | 1.69 |  |  | 
CCOC(=O)CCNc1cc(N2CCc3ccccc3CC2)nc(-c2ccccn2)n1 [GSK-J4 HCl] | > 10 | > 10 | 1.58 | > 10 | > 10 | > 10 | > 10 | 4.72 |  |  | 
CN(C(=O)c1ccc(F)cc1C(F)(F)F)C1CCN(c2nnc(-c3ccnn3C)c3ccccc23)CC1 | > 10 | > 10 | > 10 | > 10 | > 10 | > 10 | > 10 | > 10 |  |  | 
COCC1(CO)C(=O)C2CCN1CC2 (stereo not drawn) [APR-246] | 0.12 | > 10 | 0.13 | > 10 | > 10 | > 10 | > 10 | > 10 |  |  | 
CC(C)n1c(/C=C/C(O)CC(O)CC(=O)O)c(-c2ccc(F)cc2)c2ccccc21 (stereo not drawn) [Fluvastatin] | 4.28 | 1.48 | 2.5 | 1.32 | 8.73 | 0.08 | 1.32 | 0.1 |  |  | 
COCC[n+]1c2c(n(Cc3cnccn3)c1C)C(=O)c1ccccc1C2=O [YM155] | 0.27 | 0.01 | 0.02 | 0.16 | 0.28 | 0.07 | 0.15 | 0.01 |  |  | 
Cc1ccc(Nc2nccc(N(C)c3ccc4c(C)n(C)nc4c3)n2)cc1S(N)(=O)=O [Pazopanib] | > 10 | > 10 | > 10 | > 10 | > 10 | > 10 | > 10 | > 10 |  |  | 
Cn1c(=O)n(-c2ccc(C(C)(C)C#N)cc2)c2c3cc(-c4cnc5ccccc5c4)ccc3ncc21 [BEZ235] | 0.26 | 0.14 | 0.02 | 0.2 | 0.37 | 0.43 | 1.36 | 0.08 |  |  | 
O=C1NC(=O)C(c2cnc3ccccn23)=C1c1cn2c3c(cc(F)cc13)CN(C(=O)N1CCCCC1)CC2 | > 10 | > 10 | 1.52 | > 10 | 0.2 | > 10 | > 10 | > 10 |  |  | 
Cc1cc(-c2ncc(CC(=O)Nc3ccc(-c4cnccn4)cn3)cc2C)ccn1 [LGK974] | > 10 | > 10 | > 10 | > 10 | > 10 | > 10 | > 10 | > 10 |  |  | 
NC(=O)c1ccc(-c2nc(-c3ccccn3)c(-c3ccc4c(c3)OCO4)[nH]2)cc1 |  |  |  |  |  |  |  |  | > 10 | > 10 | > 10
C[C@@]1(C(=O)Nc2ccc(F)nc2)CCCN1c1nc(Nc2cc(C3CC3)n[nH]2)c2cccn2n1 |  |  |  |  |  |  |  |  | 2.35 | 0.01 | 
CCN(CCCOc1ccc2c(Nc3cc(CC(=O)Nc4cccc(F)c4)[nH]n3)ncnc2c1)CCOP(=O)(O)O [barasertib] |  |  |  |  |  |  |  |  | > 10 | > 10 | 
C[C@]1(c2nc3c(C(N)=O)cccc3[nH]2)CCCN1 [veliparib] |  |  |  |  |  |  |  |  | > 10 | > 10 | 
